Consider 3 compounds from PMC6695665, “Interrogating the Essential Bacterial Cell Division Protein FtsQ with Fragments Using Target Immobilized NMR Screening (TINS)” (International Journal of Molecular Sciences, 2019).

Where two headings read alike, the source gives them in different places.

What all share (experiment): 1H, […]-HSQC NMR chemical shift perturbation; TINS primary screen (T/R […])
What all share (format): binding

In assay [1] the target is T1, FtsQ (Escherichia coli, UniProt P06136).
T1 construct: soluble periplasmic domain (FtsQp), 15N-labeled, N-terminal tags cleaved by TEV
T1 sequence (P06136 50-276): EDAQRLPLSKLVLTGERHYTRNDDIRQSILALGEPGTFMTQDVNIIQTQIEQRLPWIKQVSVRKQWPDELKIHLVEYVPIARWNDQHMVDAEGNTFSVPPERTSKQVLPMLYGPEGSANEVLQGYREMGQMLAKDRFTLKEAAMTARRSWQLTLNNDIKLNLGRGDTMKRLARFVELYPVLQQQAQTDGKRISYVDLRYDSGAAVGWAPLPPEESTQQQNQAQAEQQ

Assay [2] addresses T1, FtsQ. The source holds these as a separate data set.
Assay [3] concerns the target T1, FtsQ. This is another data set of the same source.

For orientation: Kd means the concentration at which binding is half-saturated. As for `N[C@@H](Cc1cn(Cc2ccccc2)cn1)C(=O)O` [compound 1], the Kd on FtsQ [1] was over 1000 µM.
With `C=C1[C@H](O)C[C@@H]2C[C@H]1C2(C)C` [compound 2], at FtsQ [2], the Kd is over 1000 µM.
Regarding `CN(C)c1nc(=O)n(C2CCCCC2)c(=O)n1C` [compound 3], the Kd at FtsQ [3] is over 1000 µM.
